Publication PMC5687273 (Cell reports, 2017)

Target: Cdk7^as (Homo sapiens, UniProt P50613, D92E/F91G)
Assay: in vitro kinase assay on GST-CTD, autoradiography
Type: biochemical

Sequence of Cdk7^as (P50613 2-346 F91G/D92E): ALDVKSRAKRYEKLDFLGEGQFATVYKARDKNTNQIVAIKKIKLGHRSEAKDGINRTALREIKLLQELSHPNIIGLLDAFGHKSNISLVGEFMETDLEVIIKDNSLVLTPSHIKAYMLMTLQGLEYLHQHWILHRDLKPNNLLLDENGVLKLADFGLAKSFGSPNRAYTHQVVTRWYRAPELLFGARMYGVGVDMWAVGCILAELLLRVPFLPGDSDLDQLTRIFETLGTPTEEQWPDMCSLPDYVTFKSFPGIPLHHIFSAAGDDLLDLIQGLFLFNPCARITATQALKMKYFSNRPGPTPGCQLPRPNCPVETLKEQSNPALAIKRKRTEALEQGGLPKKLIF
Sequence of Cdk7^as (P51946 whole entry partner): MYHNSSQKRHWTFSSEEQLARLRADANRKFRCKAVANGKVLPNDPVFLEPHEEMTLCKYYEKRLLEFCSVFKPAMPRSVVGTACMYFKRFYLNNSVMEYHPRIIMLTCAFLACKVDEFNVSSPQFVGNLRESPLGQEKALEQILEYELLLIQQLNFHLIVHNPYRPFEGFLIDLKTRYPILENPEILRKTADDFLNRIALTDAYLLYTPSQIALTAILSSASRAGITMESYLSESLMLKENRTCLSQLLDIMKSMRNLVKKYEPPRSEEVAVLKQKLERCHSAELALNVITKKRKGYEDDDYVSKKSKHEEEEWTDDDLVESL
Sequence of Cdk7^as (P51948 whole entry partner): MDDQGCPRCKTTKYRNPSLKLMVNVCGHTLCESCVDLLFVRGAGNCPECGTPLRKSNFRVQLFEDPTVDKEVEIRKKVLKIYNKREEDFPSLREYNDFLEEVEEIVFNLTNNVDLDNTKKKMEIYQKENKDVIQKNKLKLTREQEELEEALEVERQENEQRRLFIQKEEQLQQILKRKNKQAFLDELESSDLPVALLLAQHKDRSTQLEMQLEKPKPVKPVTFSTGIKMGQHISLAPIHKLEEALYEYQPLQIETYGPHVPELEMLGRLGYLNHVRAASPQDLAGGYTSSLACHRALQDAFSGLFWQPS

IC50: ~10 nM
SMILES: Cc1cccc(Cc2nn(C(C)(C)C)c3ncnc(N)c23)c1 [3-MB-PP1]
